Laboratory results reported in ChEMBL document CHEMBL1201862, “PubChem BioAssay data set” (2004).
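Protocol summary: plate cells (96-well), add compound at 5 concentrations, incubate 48 h, interpolate endpoints linearly. The concentration for 50% growth inhibition is given as GI50.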 Activity calls are given as the source filed them. Rule as the data show it: active = GI50 up to about 1.1 µM and inactive = higher.

How the values were obtained:
Assay in all cases: NCI-60 cell line screen, 48 h
CAKI-1 = tested on: CAKI-1
CCRF-CEM = tested on: CCRF-CEM
COLO 205 = tested on: COLO 205
HOP-62 = tested on: HOP-62
IGROV-1 = tested on: IGROV-1
K562 = tested on: K562
KM12 = tested on: KM12
LOX IMVI = tested on: LOX IMVI
NCI-H226 = tested on: NCI-H226
NCI-H23 = tested on: NCI-H23
OVCAR-5 = tested on: OVCAR-5
OVCAR-8 = tested on: OVCAR-8
SF-295 = tested on: SF-295
SK-MEL-2 = tested on: SK-MEL-2
U-251 = tested on: U-251
UACC-257 = tested on: UACC-257
UACC-62 = tested on: UACC-62
SR = tested on: SR
MDA-N = tested on: MDA-N

| Structure (SMILES) | GI50 (CAKI-1) | GI50 (CCRF-CEM) | GI50 (COLO 205) | GI50 (HOP-62) | GI50 (IGROV-1) | GI50 (K562) | GI50 (KM12) | GI50 (LOX IMVI) | GI50 (NCI-H226) | GI50 (NCI-H23) | GI50 (OVCAR-5) | GI50 (OVCAR-8) | GI50 (SF-295) | GI50 (SK-MEL-2) | GI50 (U-251) | GI50 (UACC-257) | GI50 (UACC-62) | GI50 (SR) | GI50 (MDA-N) |
| --- | --- | --- | --- | --- | --- | --- | --- | --- | --- | --- | --- | --- | --- | --- | --- | --- | --- | --- | --- |
| COc1ccc(CNc2nc(NC3CCCCC3)nc(NC3CCCCC3)n2)cc1 | 5.14 µM (inactive) | 4.63 µM (inactive) | 3.62 µM (inactive) | 8.18 µM (inactive) | 4.76 µM (inactive) | 5.08 µM (inactive) | 1.21 µM (inactive) | 1.79 µM (inactive) | 2.99 µM (inactive) | 2.4 µM (inactive) | 4.06 µM (inactive) | 15.4 µM (inactive) | 9.66 µM (inactive) | 11.4 µM (inactive) | 4.06 µM (inactive) | 13.9 µM (inactive) | 6.46 µM (inactive) | – | – |
| OC1CCN(c2c3ccccc3nc3ccccc23)CC1 | 20.1 µM (inactive) | – | 3.13 µM (inactive) | 34.4 µM (inactive) | 14.6 µM (inactive) | 4.01 µM (inactive) | 37.2 µM (inactive) | 4.52 µM (inactive) | 34.2 µM (inactive) | 8.02 µM (inactive) | 51.8 µM (inactive) | 24.8 µM (inactive) | 27.9 µM (inactive) | 5.52 µM (inactive) | 21.5 µM (inactive) | 20.4 µM (inactive) | 35.5 µM (inactive) | 2.77 µM (inactive) | – |
| Cn1nc(Cc2ccc(Cl)cc2)n(N)c1=O | > 100 µM (inactive) | – | – | – | > 100 µM (inactive) | > 100 µM (inactive) | > 100 µM (inactive) | – | > 100 µM (inactive) | > 100 µM (inactive) | > 100 µM (inactive) | > 100 µM (inactive) | > 100 µM (inactive) | – | > 100 µM (inactive) | > 100 µM (inactive) | 39.2 µM (inactive) | – | > 100 µM (inactive) |
| CCOC(=O)N1C=CC(=C2C(=C3C=CN(C(=O)OCC)C=C3)C(=C3C=CN(C(=O)OCC)C=C3)C2=C2C=CN(C(=O)OCC)C=C2)C=C1 | 16.7 µM (inactive) | – | 23.1 µM (inactive) | 25.9 µM (inactive) | 16.1 µM (inactive) | 23.8 µM (inactive) | 22.1 µM (inactive) | 12.2 µM (inactive) | 22.3 µM (inactive) | 26.2 µM (inactive) | 36.8 µM (inactive) | 27.1 µM (inactive) | 21.8 µM (inactive) | 26.8 µM (inactive) | 13.7 µM (inactive) | 34.1 µM (inactive) | 16.9 µM (inactive) | 6.24 µM (inactive) | – |
| C=C(CCC/C(C)=C/C=C/[C@]1(C)CCCc2ccoc21)CC(=O)O | > 100 µM (inactive) | 50 µM (inactive) | > 100 µM (inactive) | > 100 µM (inactive) | > 100 µM (inactive) | 84.3 µM (inactive) | > 100 µM (inactive) | > 100 µM (inactive) | > 100 µM (inactive) | > 100 µM (inactive) | > 100 µM (inactive) | > 100 µM (inactive) | > 100 µM (inactive) | > 100 µM (inactive) | 68.4 µM (inactive) | > 100 µM (inactive) | 75.3 µM (inactive) | 39.3 µM (inactive) | – |
| O=C(COc1ccc(OCC(=O)N2C(=O)CC(=O)N(c3ccc(Cl)cc3)C2=S)cc1)N1C(=O)CC(=O)N(c2ccc(Cl)cc2)C1=S | – | – | 18.2 µM (inactive) | – | 10.8 µM (inactive) | 19.4 µM (inactive) | 15.7 µM (inactive) | – | 26.6 µM (inactive) | 25.8 µM (inactive) | 12.9 µM (inactive) | – | 34 µM (inactive) | 26.3 µM (inactive) | 33.3 µM (inactive) | 36.1 µM (inactive) | 16.8 µM (inactive) | – | 28.1 µM (inactive) |
| O=c1c(Cc2cccc(Cc3c(O)oc4ccccc4c3=O)c2)c(O)oc2ccccc12 | > 100 µM (inactive) | > 100 µM (inactive) | > 100 µM (inactive) | > 100 µM (inactive) | > 100 µM (inactive) | > 100 µM (inactive) | > 100 µM (inactive) | > 100 µM (inactive) | > 100 µM (inactive) | > 100 µM (inactive) | > 100 µM (inactive) | > 100 µM (inactive) | > 100 µM (inactive) | > 100 µM (inactive) | > 100 µM (inactive) | > 100 µM (inactive) | > 100 µM (inactive) | – | > 100 µM (inactive) |
| c1ccc(CCCN2C3CCC2CN(CCOC(c2ccccc2)c2ccccc2)C3)cc1 | 11.3 µM (inactive) | 9.82 µM (inactive) | 1.68 µM (inactive) | 13.5 µM (inactive) | 13.8 µM (inactive) | 3.91 µM (inactive) | 5.66 µM (inactive) | 12.1 µM (inactive) | 11.3 µM (inactive) | 11.1 µM (inactive) | 12.7 µM (inactive) | 11.4 µM (inactive) | 12.2 µM (inactive) | 10.6 µM (inactive) | 8.04 µM (inactive) | 8.49 µM (inactive) | 12.9 µM (inactive) | – | 13.2 µM (inactive) |
| CC(=O)Oc1ccc2c3c1[C@@H]1O[C@@H]1c1cccc(c1-3)[C@@H]1O[C@H]21 | 1.59 µM (inactive) | 0.601 µM (active) | 1.99 µM (inactive) | 2.01 µM (inactive) | – | – | 2.05 µM (inactive) | 0.962 µM (active) | 18.2 µM (inactive) | 1.63 µM (inactive) | 1.86 µM (inactive) | 1.54 µM (inactive) | 1.94 µM (inactive) | 2.37 µM (inactive) | 2.12 µM (inactive) | 2.43 µM (inactive) | 1.87 µM (inactive) | – | 1.84 µM (inactive) |
| COC(=O)C(=O)C(C(=O)C(=O)Nc1ccc(C)cc1C)c1nc2ccc(Cl)cc2nc1O (centres undefined) | > 100 µM (inactive) | > 100 µM (inactive) | > 100 µM (inactive) | > 100 µM (inactive) | > 100 µM (inactive) | – | > 100 µM (inactive) | > 100 µM (inactive) | > 100 µM (inactive) | > 100 µM (inactive) | > 100 µM (inactive) | > 100 µM (inactive) | > 100 µM (inactive) | > 100 µM (inactive) | > 100 µM (inactive) | > 100 µM (inactive) | > 100 µM (inactive) | – | > 100 µM (inactive) |
| Cc1cccc(/C(Br)=C2/OC(=O)c3ccccc32)c1 | > 100 µM (inactive) | > 100 µM (inactive) | > 100 µM (inactive) | > 100 µM (inactive) | > 100 µM (inactive) | – | > 100 µM (inactive) | – | – | > 100 µM (inactive) | > 100 µM (inactive) | > 100 µM (inactive) | > 100 µM (inactive) | – | > 100 µM (inactive) | > 100 µM (inactive) | > 100 µM (inactive) | > 100 µM (inactive) | > 100 µM (inactive) |
| CC(=O)Nc1ccc(C(=O)NN2C(=O)CSC2c2ccc([N+](=O)[O-])cc2)cc1 (centres undefined) | – | > 100 µM (inactive) | > 100 µM (inactive) | > 100 µM (inactive) | > 100 µM (inactive) | > 100 µM (inactive) | > 100 µM (inactive) | – | > 100 µM (inactive) | > 100 µM (inactive) | > 100 µM (inactive) | > 100 µM (inactive) | > 100 µM (inactive) | > 100 µM (inactive) | > 100 µM (inactive) | > 100 µM (inactive) | > 100 µM (inactive) | – | > 100 µM (inactive) |
| C/C=C\C(CC(=O)NCCC1CN(C(=O)c2ccccc2)c2ccccc21)CC(=O)OC (centres undefined) | > 100 µM (inactive) | – | > 100 µM (inactive) | > 100 µM (inactive) | > 100 µM (inactive) | > 100 µM (inactive) | > 100 µM (inactive) | – | – | > 100 µM (inactive) | > 100 µM (inactive) | > 100 µM (inactive) | > 100 µM (inactive) | > 100 µM (inactive) | > 100 µM (inactive) | > 100 µM (inactive) | > 100 µM (inactive) | – | > 100 µM (inactive) |
| COc1ccc(N2/C(=N/c3ccccc3)SC(=N/S(=O)(=O)c3ccccc3)/C2=N\S(=O)(=O)c2ccccc2)cc1 | – | 20 µM (inactive) | 16.4 µM (inactive) | 26.7 µM (inactive) | 13 µM (inactive) | 16.9 µM (inactive) | 38.8 µM (inactive) | – | 21.8 µM (inactive) | 12.9 µM (inactive) | 22.6 µM (inactive) | 18.2 µM (inactive) | – | – | 16.7 µM (inactive) | 26.8 µM (inactive) | 6.82 µM (inactive) | 16.8 µM (inactive) | – |
| CC(=O)O/C(=C(/C#N)C(=O)O)C1C(C(=O)O)C(c2ccccc2[N+](=O)[O-])C=C(c2ccco2)N1c1ccncc1 (centres undefined) | 4.3 µM (inactive) | 2.43 µM (inactive) | 3.41 µM (inactive) | 7.82 µM (inactive) | 1.12 µM (inactive) | 2.31 µM (inactive) | 1.48 µM (inactive) | 1.91 µM (inactive) | 4.63 µM (inactive) | 5.45 µM (inactive) | 7.89 µM (inactive) | 5.02 µM (inactive) | 7.67 µM (inactive) | 9.25 µM (inactive) | 2.11 µM (inactive) | 3.9 µM (inactive) | 7.52 µM (inactive) | – | 2.81 µM (inactive) |
| OC1CCC(C2C3CCCCC3C3CCCCC3C2C2CCC(O)CC2)CC1 (centres undefined) | 3.62 µM (inactive) | – | 2.22 µM (inactive) | 5.04 µM (inactive) | 3.7 µM (inactive) | 4.69 µM (inactive) | 3.33 µM (inactive) | 2.31 µM (inactive) | 6 µM (inactive) | 3.08 µM (inactive) | 7.59 µM (inactive) | 3.72 µM (inactive) | 4.28 µM (inactive) | 5.56 µM (inactive) | 3.6 µM (inactive) | 13.6 µM (inactive) | 7.16 µM (inactive) | 4.16 µM (inactive) | – |
